Test results taken from publication PMC7948422, “Repurposing p97 inhibitors for chemical modulation of the bacterial ClpB–DnaK bichaperone system” (The Journal of Biological Chemistry, 2020).
“Also recorded” adds a separate entry of the source.

Key:
DnaK [1] = target: T1, DnaK (Escherichia coli, UniProt P0A6Y8); experiment: DnaK ATPase activity assay; format: biochemical; conditions: 100 µM DBeQ, 37 °C
T1 construct: full-length E. coli DnaK (residues 1–638); made in house; host or cells: E. coli BL21(DE3)
T1 sequence (P0A6Y8 whole entry, the tested form may be a part): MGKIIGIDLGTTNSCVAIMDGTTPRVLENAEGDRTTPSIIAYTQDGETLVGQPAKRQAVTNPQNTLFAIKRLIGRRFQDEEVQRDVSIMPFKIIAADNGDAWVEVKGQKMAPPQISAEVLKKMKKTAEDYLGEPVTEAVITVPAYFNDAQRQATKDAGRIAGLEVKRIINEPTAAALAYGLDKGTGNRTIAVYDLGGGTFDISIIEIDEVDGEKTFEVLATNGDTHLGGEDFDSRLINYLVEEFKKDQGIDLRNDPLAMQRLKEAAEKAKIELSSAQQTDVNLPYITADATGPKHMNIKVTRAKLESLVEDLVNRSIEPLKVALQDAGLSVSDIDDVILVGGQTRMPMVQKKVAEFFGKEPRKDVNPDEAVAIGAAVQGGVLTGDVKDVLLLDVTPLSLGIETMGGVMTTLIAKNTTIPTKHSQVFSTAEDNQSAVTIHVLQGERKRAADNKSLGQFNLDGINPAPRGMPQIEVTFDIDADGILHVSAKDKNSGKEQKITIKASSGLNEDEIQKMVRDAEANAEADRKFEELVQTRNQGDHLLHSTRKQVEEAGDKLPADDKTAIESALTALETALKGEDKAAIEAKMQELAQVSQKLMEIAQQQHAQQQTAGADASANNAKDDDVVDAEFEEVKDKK
Procedure: To determine the ATPase activity of DnaK, 18 μl of DnaK solution or DnaK NBD solution prepared in buffer C was mixed with 1 μl of the investigated compounds or DMSO as a control. Samples without DnaK were used as control blanks. The samples were preincubated for 10 min at 37 °C. The reaction was initiated by adding 1 μl of 100-mM ATP bringing the final concentration of DnaK to 1.1 μM or DnaK NBD to 3.4 μM. The samples were incubated at 37 °C for 70 min for DnaK or 75 min for NBD. The concentration of inorganic phosphate produced from ATP in the presence of DnaK was determined as described above for ClpB.

E. coli MC4100 = experiment: Bacterial growth and viability, E. coli MC4100; format: cell-based, Escherichia coli
Procedure: (§1) E. coli MC4100, MC4100ΔclpB, dnaK103, and dnaK756 strains were used to determine an influence of DBeQ on bacterial growth and viability. Bacteria were maintained in the LB media, and in the case of the MC4100ΔclpB strain, LB was supplemented with 30 μg/ml kanamycin. All experiments were initiated by preparing overnight cultures inoculated from single colonies and grown at 37 °C. The dnaK103 and dnaK756 overnight cultures were grown at 30 °C. On the following day, the cultures were diluted 100-fold in 10 ml of LB without antibiotics and incubated at 37 °C. The culture optical density was monitored at 600 nm. When absorbance at 600 nm reached 0.4, the culture was divided into 1-ml aliquots and supplemented with 10 μl of DMSO or different concentrations of DBeQ in DMSO. The samples were immediately transferred into an incubator/shaker at temperature 37, 45, or 50 °C. Bacteria were cultured for up to 4 h with shaking (200 RPM). At specific time points, 100 μl of each culture was withdrawn and serially diluted in sterile 0.9% NaCl up to 10^6-fold dilution. To estimate the number of viable cells, 5 μl or 10 μl of the diluted cultures was spread on the LB-agar plate without an antibiotic. After a complete adsorption of liquid on the LB-agar surface, the plates were incubated overnight at 37 °C. On the following day, the bacterial colonies were counted and the colony-forming units/ml were calculated.

[2] = parameters: method as in PMID 21383145; conditions: cited from earlier work
ClpB hexamers = target: T2, ClpB hexamers (Escherichia coli, UniProt P63284); experiment: Sedimentation velocity analytical ultracentrifugation of ClpB; conditions: 50 µM DBeQ, 1 mM ATPγS, 1 mg/ml ClpB
T2 construct: made in house
T2 sequence (P63284 whole entry): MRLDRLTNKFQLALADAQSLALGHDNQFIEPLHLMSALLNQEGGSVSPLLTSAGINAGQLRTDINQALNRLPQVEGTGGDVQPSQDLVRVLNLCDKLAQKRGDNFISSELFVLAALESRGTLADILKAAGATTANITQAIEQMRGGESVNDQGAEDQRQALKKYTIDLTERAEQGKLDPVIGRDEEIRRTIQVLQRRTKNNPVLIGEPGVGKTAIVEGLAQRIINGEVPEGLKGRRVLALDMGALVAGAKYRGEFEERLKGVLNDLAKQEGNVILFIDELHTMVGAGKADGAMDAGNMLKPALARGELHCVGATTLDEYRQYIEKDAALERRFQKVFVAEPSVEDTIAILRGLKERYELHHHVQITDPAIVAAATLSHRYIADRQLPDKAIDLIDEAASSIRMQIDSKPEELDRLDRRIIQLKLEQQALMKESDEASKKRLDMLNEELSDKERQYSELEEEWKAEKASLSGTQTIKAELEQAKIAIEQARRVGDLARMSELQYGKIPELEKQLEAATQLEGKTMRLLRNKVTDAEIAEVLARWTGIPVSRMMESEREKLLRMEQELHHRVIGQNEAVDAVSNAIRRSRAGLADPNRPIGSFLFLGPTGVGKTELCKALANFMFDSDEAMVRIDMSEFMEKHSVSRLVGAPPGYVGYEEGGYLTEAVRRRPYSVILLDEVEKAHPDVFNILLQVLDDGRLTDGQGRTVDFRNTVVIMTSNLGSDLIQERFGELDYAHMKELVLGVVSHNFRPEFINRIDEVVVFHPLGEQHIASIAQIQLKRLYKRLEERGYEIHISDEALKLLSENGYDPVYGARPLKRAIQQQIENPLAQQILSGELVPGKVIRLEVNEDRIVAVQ
Procedure: Protein samples (0.5 ml) of wt ClpB and its variants W462F and W543F were dialyzed against 3 changes of 1 l of buffer AUC (50-mM Tris-HCl, pH 7.4, 200-mM KCl, 20-mM MgCl2, 1-mM EDTA, 0.5-mM TCEP). After dialysis, the samples were centrifuged (15 min, 13,000 RPM, 4 °C). The supernatants were collected, and the protein concentration was determined with the Bradford assay. Sedimentation velocity experiments were performed in Beckman Optima XL-I analytical ultracentrifuge equipped with a 4-cell rotor and 2-sector cells. The ClpB samples were diluted to 1 mg/ml in the AUC buffer supplemented with DMSO (5% (v/v) final concentration) with 1-mM ATPɤS, with or without 50-μM DBeQ. Centrifugation was performed at 48,000 RPM at 20 °C. The sedimentation profiles were collected using the interference detection system and analyzed with the Origin software supplied by the instrument manufacturer using the time-derivative method of Stafford ([71]). Observed sedimentation coefficients were corrected to values corresponding to the density and viscosity of water (s20,w) using Sednterp software (www.jphilo.mailway.com) with additional corrections for the presence of 5% DMSO ([72]).

[3] = test system: ΔclpB E. coli expressing ClpB–YFP; experiment: Viability of ΔclpB strain expressing ClpB-YFP; format: cell-based, Escherichia coli; conditions: 45 °C, 3 h
Procedure: as §1, with “At specific time points, 100 μl of each culture was withdrawn and serially diluted in sterile 0.9% NaCl up to 10^6-fold dilution. To estimate the number of viable cells, 5 μl or 10 μl of the diluted cultures was spread on the LB-agar plate without an antibiotic. After a complete adsorption of liquid on the LB-agar surface, the plates were incubated overnight at 37 °C.” left out
Supplementary Figure 10. […] (Top) ClpB was detected using Western blotting. […]
(Bottom) Western blot analysis of the bacterial lysates with anti-ClpB antibody. […] The detected signals correspond to the full-length ClpB-YFP (ClpB95-YFP) and the N-terminally truncated ClpB80-YFP (1,2). […]

DnaK [4] = target: T1, DnaK; experiment: DnaK binding to FITC-B2 peptide, fluorescence anisotropy; conditions: FITC-B2 20 nM, increasing DBeQ
Procedure: To monitor interactions between the peptide B2 and DnaK, the DnaK stock was diluted in buffer C (50-mM Tris-HCl, pH 7.4, 20-mM MgCl2, 1-mM EDTA, 0.5-mM TCEP) to a final concentration of 1 μM. DBeQ solutions in DMSO (20 μl) were mixed with 372 μl of 1-μM DnaK. After 10 min of incubation at room temperature, the samples were supplemented with 8 μl of 1-μM FITC-B2 in buffer C (FITC-Ahx-[…]-NH2) ([51]). The FITC-B2 sample without DnaK was used as a control. After a 30-min incubation at room temperature, fluorescence anisotropy of FITC-B2 was measured with a PerkinElmer LS55 (λexc = 485 nm (slit: 15 nm), λem = 521 (slit: 20 nm)).

With `c1ccc(CNc2nc(NCc3ccccc3)c3ccccc3n2)cc1` [DBeQ, N^2,N^4-dibenzylquinazoline-2,4-diamine] the “effect on DnaK ATPase activity” value (DnaK [1]) was “did not detect inhibition; also recorded: did not affect”, the “effect on growth of E. coli” value (E. coli MC4100; MC4100, 37 °C) was “suppressed the growth; also recorded: inhibited the growth” and the “effect on viability of E. coli under heat shock” value (E. coli MC4100; MC4100, 45 °C) was “exacerbated by heat shock; also recorded: strongly inhibited”. For the same molecule, the “effect on viability of E. coli at severe heat shock” value (E. coli MC4100; MC4100, 50 °C) was “lost viability at the lowest DBeQ concentrations tested”, the “solubility in aqueous buffers” value [2] was “limited” and the “dissociation of ClpB hexamers” value (ClpB hexamers) was “does not induce dissociation”. For the same molecule, the “susceptibility of ΔclpB strain on expression of ClpB–YFP” value [3] was “susceptibility to DBeQ was restored” and the “suppression of DnaK binding to substrate-mimicking peptide” value (DnaK [4]) was “did not detect”.
